Measured values: BigSolDB 2.1

CCOc1nc2cccc(C(=O)OC(C)OC(=O)OC3CCCCC3)c2n1Cc1ccc(-c2ccccc2-c2nn[nH]n2)cc1 (stereo not given)
solubility (mole fraction)
Details	in 2-butanone	in acetone	in acetonitrile	in ethanol	in isopropanol	in n-propanol
278.15 K	0.00575	0.00383	0.00026	0.00055	0.00026	0.00062
283.15 K	0.00653	0.00467	0.00033	0.00066	0.00037	0.00079
288.15 K	0.00749	0.00566	0.00044	0.00086	0.00052	0.00098
293.15 K	0.0086	0.00673	0.00058	0.00103	0.0007	0.00132
298.15 K	0.01	0.00783	0.00071	0.0013	0.00093	0.00172
303.15 K	0.0118	0.00946	0.00091	0.00163	0.00128	0.00208
308.15 K	0.0138	0.0111	0.00127	0.00203	0.0017	0.00283
313.15 K	0.016	0.0133	0.00159	0.00271	0.00221	0.00373
318.15 K	0.019	0.0155	0.00195	0.00355	0.00298	0.00452
323.15 K	0.0224	0.0182	0.00263	0.00458	0.00391	0.0059
328.15 K	0.0264	–	0.00343	0.00573	0.00526	0.00759
333.15 K	0.031	–	0.00442	0.00772	0.00667	0.00977
